Measured values taken from patent publication US20220089600A1, “TGFß INHIBITOR AND PRODRUGS” (FUNDACIÓ INSTITUT DE RECERCA BIOMÈDICA (IRB BARCELONA), priority 2018, published 2022).
pIC50: −log10 of the molar value.

Legend:
LigF = target: T1, LigF (Sphingobium sp., UniProt P30347); assay: In vitro fluorescence assay with purified LigF; format: biochemical, Sphingobium sp. strain SYK-6; settings: 30 μM substrate, 15 μg/ml LigF, 1 mM glutathione, room temperature
T1 construct: made in house; host or cells: E. coli BL21 (DE3) Rosetta lysS
T1 sequence (P30347 1-257): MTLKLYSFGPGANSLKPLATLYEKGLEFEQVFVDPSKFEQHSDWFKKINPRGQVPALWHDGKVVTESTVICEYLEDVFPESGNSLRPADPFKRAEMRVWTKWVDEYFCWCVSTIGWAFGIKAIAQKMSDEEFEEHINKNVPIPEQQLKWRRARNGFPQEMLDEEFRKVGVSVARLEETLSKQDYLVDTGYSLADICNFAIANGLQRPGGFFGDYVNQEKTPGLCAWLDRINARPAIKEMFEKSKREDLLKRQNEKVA
Procedure: To test the enzymatic activity of LigF, pure LigF protein was expressed by the Protein Expression Core Facility within the IRB Barcelona by inserting the His-tagged LigF DNA into a pOPINF vector and expressed in E. coli BL21 (DE3) Rosetta IysS cells. After expression and lysis, the protein was purified by using a nickel column followed by gel filtration. Noteworthy, the His tags were not removed from the protein after purification.
For in vitro fluorescence assays, purified LigF was diluted to 15 μg/ml in 20 mM Tris-HCl (pH 7.5), 1 mM glutathione and 30 μM 4-methylumbelliferone acetovanillone (MUAV) model compound was added.
Reactions were performed in a 96-well solid polystyrene plate (Corning) and measured with a top-well plate reader (BioTek FL600 fluorometer) at 360 excitation, 485 emission and sensitivity 100.
Due to a rapid rate of production of 4-methylumbelliferone (4-MU) owing to the cleavage of the beta-ether bond of compound MUAV, the protocol described by Masai (E. Masai et al., J. Bacteriol. 2003, 185, 1768-75) was modified by lowering the LigF enzyme concentration. With this optimized protocol, compound MUAV was incubated at room temperature in the presence of a buffer, glutathione (GSH) and LigF, and followed the cleavage by observing the production of 4-MU by fluorescence. […] Enzyme LigF cleaved product MUAV in approximately 30-40 min (FIG. 6).

[1] = target: T2, LigF expressed in HEK293T cells (Sphingobium sp., UniProt P30347); assay: Fluorescence assay in HEK293T cells stably expressing LigF; format: cell-based
T2 construct: expressed in transfected cells; host or cells: HEK293T (lentiviral pLenti PGK puro)
Procedure: […]. At time points after addition of various concentrations of MUAV, namely 10, 30, and 100 μM, culture medium was taken for measurements of 4-MU fluorescence.

[2] = system: TGFβ signaling (12×CAGA-Firefly_Luc reporter) in HEK293T cells; assay: In vitro CAGA-Luciferase reporter assay; format: cell-based; settings: Homo sapiens, HEK-293T, 5 ng/ml TGFB1, 16h, read-out: IC50, TGFβ signaling inhibition (CAGA-Luciferase)
Procedure: HEK293T cells were purchased from the ATCC and cultured in DMEM supplemented with L-glutamine and 10% fetal bovine serum (Life Technologies) at 37° C. and 5% CO2. The cells were seeded in 24-well plates and transfected with plasmids encoding 12×CAGA-Firefly_Luc and Tk-Renilla_Luc (75 and 10 ng per well, respectively), using polyethylenimine (Polysciences) as transfection reagent. After 7h, medium was replaced for starvation medium (DMEM+0.05% FBS). […] Luciferase activity was measured 16h later using the Dual Luciferase Assay kit (Promega): media were aspirated, and cells were lysed in 200 μl passive lysis buffer (kit) for 20 minutes. Bioluminescence was measured in a Berthold Lumat LB6507 luminometer (18 μl reagents, 10 seconds measurements). […]
When adding the luciferase substrate (luciferin) to the cell lysates, emission of light implies an active TGF-β pathway due to the production of pSMAD2/3-SMAD4, whereas no or little observed light would imply inhibition of the pathway by the inhibitor. Finally, the results could be normalized by the addition of Stop & Glo® which quenches the firefly luciferase enzyme/substrate and activates the Renilla transfection control, producing light which was again measured by the luminometer and used to normalize the data.

MTO129 liver metastases [3] = assay: Mouse liver metastasis initiation/formation assay with MTOs; format: in vivo; settings: for Efficacy (Cure rate): two weeks, mice with no metastases; for metastatic tumor growth inhibitory capacity (bioluminescence): day 3 until day 14
From the text: Mouse tumor organoids (MTOs) are derived from compound transgenic mice (conditional mutations in Apc, Kras, Trp53 and Tgfbr2, as well as bearing Lgr5-EGFP/CreER^T2) of the C57BL6/J strain and cultured as described in Tauriello et al. 2018 Nature 554(7693): 538-543. doi: 10.1038/nature25492. Organoids are tumor epithelial cells grown in a 3D matrix where they adopt an organotypic architecture, typically as spheroids with a lumen. In this way, cells retain a relatively normal polarity (which means that the outside surface, inside/luminal surface and cell-cell contacts are individually specialized), which is more physiological than in conventional 2D cell culture.
In all experiments described in present invention MTO129 were used (Tauriello et al. Nature. 2018).
In patients, treatment doses were reduced to 80 to 150 mg b.i.d in a regime of 14 days on-14 days off.
MTOs expressing a luciferase reporter were measured by bioluminescence imaging, using retroorbital injection of 50 μl 15 mg/ml D-luciferin potassium salt (Resem BV). Photons per second from the region spanning thorax/abdomen were quantified and normalized to the measure at the day of injection.
Control mice were treated with 150 μl of vehicle.
In the experiment shown in FIG. 13, potency of the indicated compounds to inhibit metastasis formation was assessed. Mice were treatments with indicated compounds started two days after MTO129 transplantation and continued during two weeks. Mice were sacrificed at 4 weeks post transplantation and liver metastases (LiMs) were counted by eye on fixed livers.

[4] = In vivo toxicity, histopathology; set-up: species or system mouse; settings: for Sternum side effect, mice affected per mice tested / Long bones side effect, mice affected per mice tested: two weeks
From the text: Number of cured mice, i.e. mice with no metastases at experimental end points, were score. Intestines, skin samples, hearts, thoracic skeletons and limbs of these mice were fixed in 10% formalin, phosphate buffered (Sigma). Soft tissues were embedded in paraffin blocks, sectioned and stained with haematoxylin & eosin. Bones were first decalcified for 2 weeks before embedding, sectioning and staining. An experienced pathologist analyzed tissues for histopathological abnormalities. […] Furthermore, the cartilage ossification zone at the ends of the long bones was analysed for defects in the hypertrophic zone.

MTO129 liver metastases [5] = settings: Tauriello et al. Nature 2018 (10×); cited from earlier work

COc1cc(C(=O)COc2ccc3c(C)cc(=O)oc3c2)ccc1O [MUAV, 7-(2-(4-hydroxy-3-methoxyphenyl)-2-oxoethoxy)-4-methyl-2H-chromen-2-one]
time for cleavage by LigF (LigF): 30 to 40 min | cleavage of ether bond (4-MU fluorescence) ([1]; HEK293T expressing LigF, 10, 30, 100 μM): dose-dependent increase in fluorescence | cleavage of ether bond (4-MU fluorescence) ([1]; HEK293T with empty vector (no LigF), 100 μM): No cleavage

Cc1cccc(-c2nn3c(c2-c2ccnc4ccc(C(N)=O)cc24)CCC3)n1 [Galunisertib, reference compound]
pIC50 [2]: 6.44 | Efficacy (Cure rate) (MTO129 liver metastases [3]; 1x dose): 0% | Efficacy (Cure rate) (MTO129 liver metastases [3]; 3x dose): ~70% | Efficacy (Cure rate) (MTO129 liver metastases [3]; 9x dose): ~100% | metastatic tumor growth inhibitory capacity (MTO129 liver metastases [3]; 9× dose, as seen in FIG. 3): highly effective | metastatic tumor growth inhibitory capacity (bioluminescence) (MTO129 liver metastases [3]; FIG. 4, 1× dose): not effective | metastatic tumor growth inhibitory capacity (bioluminescence) (MTO129 liver metastases [3]; FIG. 4, 3× dose): mostly effective | effective dose (>50% efficacy) (MTO129 liver metastases [3]; oral, divided b.i.d.): 480 mg/kg/day | Combined side effects per number tested ([4]; 1x dose): 0/5 | Toxicity (%) ([4]; 1x dose): 0% | Sternum side effect, mice affected per mice tested ([4]; 1x dose): 0/5 | pathological analysis of the skin and intestine ([4]; 1× doses): No pathological anomalies | Combined side effects per number tested ([4]; 3x dose): 1/9 | Toxicity (%) ([4]; 3x dose): 11% | Long bones side effect, mice affected per mice tested ([4]; 3x dose): 0/5 | Sternum side effect, mice affected per mice tested ([4]; 3x dose): 1/4 | Combined side effects per number tested ([4]; 9x dose): 6/10 | Toxicity (%) ([4]; 9x dose): 60% | Long bones side effect, mice affected per mice tested ([4]; 9x dose): 2/3 | Sternum side effect, mice affected per mice tested ([4]; 9x dose): 4/7 | toxic dose (toxicity >50%) ([4]; 9× dose equivalent): 1440 mg/kg/day | doses needed to effectively treat metastatic cancers (MTO129 liver metastases [5]): up to 1600 mg/kg/day
